Assay results: patent US12233161B1, “Lipids and lipid nanoparticle formulations” (LONGUIDE BIOPHARMA CORPORATION, priority 2024, dated 2025)

Legend:
mice = assay: In vivo delivery of FLuc-mRNA lipid nanoparticles in mice, in vivo imaging (IVIS); details: for IVIS: Fluc-mRNA
Method in brief: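 Mice (n=3) received about 75 μL FLuc-mRNA LNP per mouse intramuscularly (rectus femoris), intravenously (tail vein), intraperitoneally or subcutaneously (back). After injection, D-luciferin (200 μL, 15 mg/mL) was given i.p. 10-15 min before IVIS imaging.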

[1] = Particle size and PDI of nucleic acid lipid nanoparticle preparations by dynamic light scattering; type: physicochemical
Method in brief: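 Size read by DLS after diluting the LNP preparation (approx. 0.04 mg/mL mRNA) in ultrapure water with gentle pipette mixing. The same sample, recovered and diluted further with water, was then used for zeta potential measurement.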

[2] = Potential characterization of nucleic acid lipid nanoparticle preparations; type: physicochemical
Protocol: 20 μL of the nucleic acid lipid nanoparticle solution (containing about 0.04 mg/mL mRNA) was taken and added with 780 μL of ultrapure water, used a pipette tip to gently blow and mix, and the potential of the nanopreparation was detected by Malvern particle sizer (model ZEN3700).
27.5 μL nucleic acid lipid nanoparticle solution (containing about 0.04 mg/mL mRNA) was taken and added with 200 μL ultrapure water. A pipette tip was used to gently blow the sample and mix well. The particle size of the nanopreparation was detected by Malvern Dynamic Light Scattering Instrument (Malvern Instruments Ltd., ZEN3700, UK). After the detection, the sample was recovered to an EP tube, and 600 μL of ultrapure water was added, gently blown with a pipette tip, and the potential of the nanopreparation was measured by a Malvern particle size meter.

[3] = IM, DMG-PEG2000:DSPC:Chol:compound 1.40:11.15:38.95:48.50, N/P 20
[4] = IV, organ not given, DMG-PEG2000:DSPC:Chol:compound 1.40:11.15:38.95:48.50, N/P 20
[5] = DMG-PEG2000:DSPC:Chol:compound 1.40:11.15:38.95:48.50, N/P 20
[6] = IM, DMG-PEG2000:DSPC:Chol:compound 1.40:11.15:38.95:48.50, N/P 30
[7] = IV, organ not given, DMG-PEG2000:DSPC:Chol:compound 1.40:11.15:38.95:48.50, N/P 30
[8] = DMG-PEG2000:DSPC:Chol:compound 1.40:11.15:38.95:48.50, N/P 30
[9] = IV, body, DMG-PEG2000:DSPC:Chol:compound 1.40:11.15:38.95:48.50, N/P 30
[10] = IV, liver, DMG-PEG2000:DSPC:Chol:compound 1.40:11.15:38.95:48.50, N/P 30
[11] = IV, lung, DMG-PEG2000:DSPC:Chol:compound 1.40:11.15:38.95:48.50, N/P 30
[12] = IV, spleen, DMG-PEG2000:DSPC:Chol:compound 1.40:11.15:38.95:48.50, N/P 30
[13] = IV, liver, DMG-PEG2000:DSPC:Chol:compound 1.40:11.15:38.95:48.50, N/P 20
[14] = IV, lung, DMG-PEG2000:DSPC:Chol:compound 1.40:11.15:38.95:48.50, N/P 20
[15] = IV, spleen, DMG-PEG2000:DSPC:Chol:compound 1.40:11.15:38.95:48.50, N/P 20

| Structure (SMILES) | IVIS (mice; [3]) | IVIS (mice; [4]) | PDI [1, 5] | Particle size (nm) [1, 5] | Zeta potential (mV) [2, 5] | IVIS (mice; [6]) | PDI [1, 8] | Particle size (nm) [1, 8] | Zeta potential (mV) [2, 8] | IVIS (mice; [9]) | % of organ targeting (mice; [10]) | IVIS (mice; [10]) | % of organ targeting (mice; [11]) | IVIS (mice; [11]) | % of organ targeting (mice; [12]) | IVIS (mice; [12]) | further results |
| --- | --- | --- | --- | --- | --- | --- | --- | --- | --- | --- | --- | --- | --- | --- | --- | --- | --- |
| CCCCCCCCCCOC(=O)C(O)CN(CCOCCN(CC(O)C(=O)OCCCCCCCCCC)CC(O)C(=O)OCCCCCCCCCC)CC(O)C(=O)OCCCCCCCCCC (centres unmarked) [Compound L0314] | 3.31E+05 | 2.35E+05 | 0.26 | 559.3 nm | 11.33 mV | – | – | – | – | – | – | – | – | – | – | – | – |
| CCCCCCCCCCOC(=O)C(O)CN(C)CCCN(C)CCCN(C)CC(O)C(=O)OCCCCCCCCCC (centres unmarked) [Compound L0315] | – | – | – | – | – | 8.43E+05 | 0.13 | 141.63 nm | 12.5 mV | – | – | – | – | – | – | – | IVIS (mice; [7]): 5.00E+05 |
| CCCCCCOC(C)OCCCCCCOC(=O)C(O)CN(CCCN(C)CCCN(CC(O)C(=O)OCCCCCCOC(C)OCCCCCC)CC(O)C(=O)OCCCCCCOC(C)OCCCCCC)CC(O)C(=O)OCCCCCCOC(C)OCCCCCC (centres unmarked) [Compound L0316] | – | – | – | – | – | 4.46E+06 | 0.12 | 125.9 nm | 18.97 mV | – | – | – | – | – | – | – | IVIS (mice; [7]): 3.53E+08 |
| CCCCCCCC/C=C\CCCCCCCCNC(=O)C(O)CN(CCCN(C)CCCN(CC(O)C(=O)NCCCCCCCC/C=C\CCCCCCCC)CC(O)C(=O)NCCCCCCCC/C=C\CCCCCCCC)CC(O)C(=O)NCCCCCCCC/C=C\CCCCCCCC (centres unmarked) [Compound L0317] | – | – | – | – | – | 1.53E+06 | 0.15 | 117.83 nm | 13.53 mV | 3.60E+07 | 3.15% | 2.78E+06 | 79.76% | 7.03E+07 | 17.09% | 1.51E+07 | – |
| CCCCCCCCCCOC(=O)C(O)CN(CCCCCN(CC(O)C(=O)OCCCCCCCCCC)CC(O)C(=O)OCCCCCCCCCC)CC(O)C(=O)OCCCCCCCCCC (centres unmarked) [Compound L0318] | 5.83E+05 | 2.09E+05 | 0.25 | 571.13 nm | 11.23 mV | – | – | – | – | – | – | – | – | – | – | – | – |
| CCCCCCCCCCCCOC(=O)C(O)CN(CCCCCN(CC(O)C(=O)OCCCCCCCCCCCC)CC(O)C(=O)OCCCCCCCCCCCC)CC(O)C(=O)OCCCCCCCCCCCC (centres unmarked) [Compound L0319] | 7.22E+05 | 1.32E+06 | 0.13 | 172.83 nm | 11.20 mV | – | – | – | – | – | – | – | – | – | – | – | – |
| CCCCCCCCCCNC(=O)C(O)CN(CCCCCN(CC(O)C(=O)NCCCCCCCCCC)CC(O)C(=O)NCCCCCCCCCC)CC(O)C(=O)NCCCCCCCCCC (centres unmarked) [Compound L0320] | 1.45E+05 | 6.60E+05 | 0.10 | 120.33 nm | 10.39 mV | – | – | – | – | – | – | – | – | – | – | – | – |
| CCCCCCCCCCOC(=O)C(O)CN(CCCCCCCN(CC(O)C(=O)OCCCCCCCCCC)CC(O)C(=O)OCCCCCCCCCC)CC(O)C(=O)OCCCCCCCCCC (centres unmarked) [Compound L0321] | 1.37E+05 | 2.11E+05 | 0.48 | 207.73 nm | −0.61 mV | – | – | – | – | – | – | – | – | – | – | – | – |
| CCCCCCCCCCCCOC(=O)C(O)CN(CCCCCCCN(CC(O)C(=O)OCCCCCCCCCCCC)CC(O)C(=O)OCCCCCCCCCCCC)CC(O)C(=O)OCCCCCCCCCCCC (centres unmarked) [Compound L0322] | 8.23E+05 | 2.72E+05 | 0.40 | 260.70 nm | 9.14 mV | – | – | – | – | – | – | – | – | – | – | – | – |
| CCCCCCCCCCNC(=O)C(O)CN(CCCCCCCN(CC(O)C(=O)NCCCCCCCCCC)CC(O)C(=O)NCCCCCCCCCC)CC(O)C(=O)NCCCCCCCCCC (centres unmarked) [Compound L0323] | 7.24E+05 | – | 0.14 | 94.78 nm | 8.37 mV | – | – | – | – | – | – | – | – | – | – | – | IVIS (mice; IV, body, DMG-PEG2000:DSPC:Chol:compound 1.40:11.15:38.95:48.50, N/P 20): 2.95E+06; % of organ targeting (mice; [13]): 44.01%; IVIS (mice; [13]): 8.40E+05; % of organ targeting (mice; [14]): 6.06%; IVIS (mice; [14]): 1.16E+05; % of organ targeting (mice; [15]): 49.93%; IVIS (mice; [15]): 9.53E+05 |
| CCCCCCCCCCOC(=O)C(O)CN(CCOCCOCCN(CC(O)C(=O)OCCCCCCCCCC)CC(O)C(=O)OCCCCCCCCCC)CC(O)C(=O)OCCCCCCCCCC (centres unmarked) [Compound L0324] | 4.15E+05 | 7.27E+05 | 0.47 | 445.20 nm | 5.44 mV | – | – | – | – | – | – | – | – | – | – | – | – |
| CCCC/C=C\CCOCOCCCCOC(=O)C(O)CN(CCN(C)CCN(CC(O)C(=O)OCCCCOCOCC/C=C\CCCC)CC(O)C(=O)OCCCCOCOCC/C=C\CCCC)CC(O)C(=O)OCCCCOCOCC/C=C\CCCC (centres unmarked) [Compound L0335] | – | – | – | – | – | 1.99E+06 | 0.19 | 110.13 nm | 14.07 mV | 9.08E+07 | 37.57% | 1.92E+07 | 2.72% | 1.39E+06 | 59.71% | 3.05E+07 | – |
| CCCCCCC(CCCCCC)C(=O)OCCCCCCOC(=O)C(O)CN(CCN(C)CCN(CC(O)C(=O)OCCCCCCOC(=O)C(CCCCCC)CCCCCC)CC(O)C(=O)OCCCCCCOC(=O)C(CCCCCC)CCCCCC)CC(O)C(=O)OCCCCCCOC(=O)C(CCCCCC)CCCCCC (centres unmarked) [Compound L0336] | – | – | – | – | – | 1.51E+08 | 0.13 | 78.38 nm | 4.21 mV | 9.63E+08 | 87.42% | 1.95E+08 | 0.71% | 1.59E+06 | 11.87% | 2.65E+07 | – |
| CCCCCCCCCCOC(=O)C(O)CN(CCN(C)CCN(CC(O)C(=O)OCCCCCCCCCC)CC(O)C(=O)OCCCCCCCCCC)CC(O)C(=O)OCCCCCCCCCC (centres unmarked) [Compound L0337] | – | – | – | – | – | 3.70E+05 | 0.2 | 102.07 nm | 28.07 mV | 2.05E+07 | 8.23% | 2.66E+06 | 2.94% | 9.51E+05 | 88.83% | 2.87E+07 | – |
| CCCCCCCCCCCCCCOC(=O)C(O)CN(CCN(C)CCN(CC(O)C(=O)OCCCCCCCCCCCCCC)CC(O)C(=O)OCCCCCCCCCCCCCC)CC(O)C(=O)OCCCCCCCCCCCCCC (centres unmarked) [Compound L0338] | – | – | – | – | – | 3.98E+05 | 0.22 | 96.63 nm | 19.13 mV | 8.55E+06 | 11.14% | 8.81E+05 | 3.68% | 2.91E+05 | 85.18% | 6.73E+06 | – |
| CCCCCCCCCCOC(=O)C(O)CN(CCCN(CC(O)C(=O)OCCCCCCCCCC)CC(O)C(=O)OCCCCCCCCCC)CCCN(CC(O)C(=O)OCCCCCCCCCC)CC(O)C(=O)OCCCCCCCCCC (centres unmarked) [Compound L0339] | – | – | – | – | – | 8.33E+07 | 0.15 | 126.63 nm | 12.37 mV | 5.92E+07 | 28.78% | 1.17E+07 | 0.41% | 1.67E+05 | 70.81% | 2.87E+07 | – |
